Experimental data reported in patent US11536729B2, “Method of identifying novel protein aggregation inhibitors based on chemical kinetics” (Cambridge Enterprise Limited, priority 2016, dated 2022).
Entries after “also recorded” stand apart in the source; their conditions may differ.

Key:
Aβ42 = biological target: T1, Aβ42 (Homo sapiens, UniProt P05067); experiment: ThT Aβ42 aggregation kinetics with 1-5% pre-formed fibril seeds (surface-catalyzed secondary nucleation); format: biochemical; conditions: 2 μM Aβ42, 0.5- and 5-fold excess
T1 construct: The recombinant Aβ (M1-42) peptide; made in house; host or cells: E. coli BL21 Gold (DE3)
Procedure: For the seeded experiments, preformed fibrils were prepared just prior to the experiment. Kinetic experiments were set up just as above for a […] Aβ42 samples in 20 mM sodium phosphate buffer, pH 8 with 200 μM EDTA, 0.02% NaN3 and 20 μM ThT. The ThT fluorescence was monitored for 3 hours to verify the formation of fibrils.
Samples were then collected from the wells into low-binding tubes and sonicated for 2 min in a sonicator bath at room temperature. Under the considered conditions (i.e. 4 μM Aβ42), the monomer concentration is negligible at equilibrium (31). The final concentration of fibrils, in monomer equivalents, was considered equal to the initial concentration of monomer. Fibrils were then added to freshly prepared monomer in order to reach either 5% or 10% fibrils final concentration.
Assays were initiated by placing the 96-well plate at 37° C. under quiescent conditions in a plate reader (Fluostar Omega, Fluostar Optima or Fluostar Galaxy, BMGLabtech, Offenburg, Germany). The ThT fluorescence was measured through the bottom of the plate with a 440 nm excitation filter and a 480 nm emission filter. The ThT fluorescence was followed for three repeats of each sample. […]
For the seeded experiments, preformed fibrils were prepared just prior to the experiment. […] The ThT fluorescence was monitored for 3 hours to verify the formation of fibrils. […]

[1] = tested on: C. elegans GMC101 (Aβ-worm); experiment: C. elegans motility assay (body bends), Aβ-worm model; format: in vivo, Caenorhabditis elegans
Procedure: Standard conditions were used for Caenorhabditis elegans propagation at 20° C. (53). Briefly, animals were synchronized by hypochlorite bleaching, hatched overnight in M9 buffer, and subsequently cultured on nematode growth medium (NGM, USP agar) plates seeded with the E. coli strain OP50. Saturated cultures of OP50 were grown by inoculating 50 mL of LB medium with OP50 and incubating the culture for 16 h at 37° C. NGM plates were seeded with bacteria by adding 350 μl of saturated OP50 to each plate and leaving the plates at room temperature for 2-3 days. On day 3 after synchronization, animals were placed on NGM plates containing 5-fluoro-2′deoxy-uridine (FUDR) ([…], unless stated otherwise) to inhibit growth of offspring.
The following strains were used: dvls100[unc-54p::A-beta-1-42::unc-54 3′-UTR+mtl-2p::GFP] (GMC101). mtl-2p::GFP produces constitutive expression of GFP in intestinal cells. unc-54p::A-beta-1-42 expresses full-length human Aβ42 peptide in bodywall muscle cells that aggregates in vivo. Shifting L4 or young adult animals from 20 C° to 25 C° causes paralysis dvls15[pPD30.38 (unc-54 vector)+mtl-2::GFP (pCL26)] (CL2122), control strain for GMC101 (57). Phenotype apparently WT. C. elegans var Bristol (N2). Generation time is about 3 days. Brood size is about 350. Isolated from mushroom compost near Bristol, England. […]
All populations were cultured at 20° C. and developmentally synchronized from a 4 h egg-lay. At 64-72 h post egg-lay (time zero) individuals were shifted to 23° C. or 25° C., and body movement assessed over time as indicated. At different ages, animals were washed out of the plates with M9 and spread over an un-seeded 6 cm plate, after which their movements were recorded at 30 fps using a home-made microscopic setup, at 0.75× magnification, for 30 s or 1 min. 200 animals were counted per experiment unless stated otherwise. […]
Videos were elaborated using ImageJ (National Institutes of Health, Bethesda, Md., USA), and body bends were quantified using the wrMTrck plug-in (http://www.phage.dk/plugins/wrmtrck.html), developed by Jesper Søndergaard Pedersen.

[2] = tested on: C. elegans GMC101 (Aβ-worm); experiment: NIAD-4 staining of amyloid aggregates in living C. elegans; format: in vivo, Caenorhabditis elegans
Procedure: Live transgenic animals were incubated with NIAD-4 over a range of concentrations and times, and it was empirically determined that incubation of living animals with 1 μM NIAD-4 (0.1% DMSO in M9 buffer) for four hours at room temperature gave robust and reproducible staining. After staining, animals were Let recover on NGM plates for about 24 hrs to allow destaining via normal metabolism. Stained animals were mounted on 2% agarose pads containing 40 mM NaN3 as anaesthetic on glass microscope slides for imaging. Images were captured with a Zeiss Axio Observer.D1 fluorescence microscope (Carl Zeiss Microscopy GmbH, Jena, Germany) with a 20× objective and a 49004 ET-CY3/TRITC filter (Chroma Technology Corp, Bellows Falls, Vt., USA). Fluorescence intensity was calculated using ImageJ software (National Institutes of Health, Bethesda, Md., USA), and then normalized as the corrected total cell fluorescence (CTCF). Only the head region was considered, due to the high background signal in the guts. All experiments were carried out in triplicate and the data from one representative experiment are shown. Statistical significance was determined using t tests.

T1 sequence (P05067 672-713 limits assumed): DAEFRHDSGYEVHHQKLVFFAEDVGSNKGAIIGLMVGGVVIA

## C=C(c1ccc(C(=O)O)cc1)c1cc2c(cc1C)C(C)(C)CCC2(C)C [bexarotene]
Aβ42
  effect on aggregation kinetics with 5% pre-formed fibril seeds: concentration-dependent bexarotene-induced delay
[1]; 10 μM, two bursts at L1 and L4 larval stages
  motility (frequency of body bends) of Aβ-worms: maintained completely; also recorded: Complete recovery
[1]; 5 to 10 μM added at larval stages
  motility of Aβ-worms, concentration dependence: concentration-dependent maintenance
[1]; added only at day 2
  effect on motility of Aβ-worms when added only at day 2: did not show any detectable effect
[2]; 10 μM
  time for which formation of Aβ42 fibrils was suppressed: 9 days of adulthood
[2]; Aβ-worm model in the presence of bexarotene
  level of aggregates (NIAD-4 fluorescence): essentially no aggregates being detected
